Experimental data from patent US20260022143A1, “Cyclic Peptide Inhibitors of IL-23” (JANSSEN PHARMACEUTICA NV, priority 2022, published 2026).
Positions of bridges follow the written chain, without caps; N, C: chain ends. Non-standard residues stand in square brackets, D forms with d. Residues, ends and D or L forms follow the SMILES beside them. *: point of attachment. Me3N+(CH2)2O(CH2)2O(CH2)2CO = C[N+](C)(C)CCOCCOCCC(=O)*; 2Nal = N[C@@H](Cc1ccc2ccccc2c1)C(=O)O; 3Pal = N[C@@H](Cc1cccnc1)C(=O)O; Lys(Me) = CNCCCC[C@H](N)C(=O)O; Pen = CC(C)(S)[C@H](N)C(=O)O; Thp = NC1(C(=O)O)CCOCC1; X3 = C[N+](C)(C)CCCCC*; Sar = CNCC(=O)O

How the values were obtained:
[1] = molecular target: T1, IL-23R (Homo sapiens, UniProt Q5VWK5); experiment: IL23R Reporter Assay; type: cell-based; details: HEK293 cells containing IL-23R, IL-12RP1 and STAT-inducible firefly luciferase reporter; 10 ng/mL IL-23 (EC90); 5 h at 37° C.; read-out: IL23R Reporter Assay
T1 construct: host or cells: HEK293
T1 sequence (Q5VWK5 24-629): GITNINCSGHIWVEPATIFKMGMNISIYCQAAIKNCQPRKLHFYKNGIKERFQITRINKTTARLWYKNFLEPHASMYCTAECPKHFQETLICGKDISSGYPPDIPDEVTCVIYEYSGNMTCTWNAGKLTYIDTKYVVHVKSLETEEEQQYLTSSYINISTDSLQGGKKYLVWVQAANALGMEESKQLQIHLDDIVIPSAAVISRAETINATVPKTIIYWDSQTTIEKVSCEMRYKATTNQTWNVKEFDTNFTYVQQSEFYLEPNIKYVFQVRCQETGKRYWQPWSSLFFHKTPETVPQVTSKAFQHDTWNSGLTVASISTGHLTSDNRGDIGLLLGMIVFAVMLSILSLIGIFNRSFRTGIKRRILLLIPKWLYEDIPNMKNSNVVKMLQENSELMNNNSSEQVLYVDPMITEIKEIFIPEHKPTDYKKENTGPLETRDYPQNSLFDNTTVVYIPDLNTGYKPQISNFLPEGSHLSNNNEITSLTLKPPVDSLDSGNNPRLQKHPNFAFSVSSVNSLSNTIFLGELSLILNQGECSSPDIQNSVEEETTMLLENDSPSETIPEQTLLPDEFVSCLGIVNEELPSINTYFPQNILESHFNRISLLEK

[2] = Exposed Polar Surface Area (EPSA); type: physicochemical; details: SFC on Chirex 3014 column; sample 1 mM DMSO stock; read-out: EPSA
Summary of the method: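 Polarity descriptor in Å² derived from retention time using 8 calibration standards re-run every 20 compounds. Duplicate injections of 1 mM DMSO stock; linear 5–60% modifier gradient (20 mM ammonium formate in MeOH) with CO2 at 4 mL/min, 35 °C, on a Chirex 3014 column.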

| IC50 [1] [nM] | EPSA [2] [A^2] | Compound |
| --- | --- | --- |
| 3 | 164 | CC(=O)N(C)CCCC[C@@H]1NC(=O)[C@H](Cc2c[nH]c3ccccc23)NC(=O)[C@H]([C@@H](C)O)NC(=O)[C@H](CC(=O)N(C)C)NC(=O)[C@@H](NC(=O)CCOCCOCC[N+](C)(C)C)C(C)(C)SSC(C)(C)[C@@H](C(=O)N[C@@H](Cc2ccc(OCCCCC[N+](C)(C)C)cc2)C(=O)N[C@@H](Cc2ccc3ccccc3c2)C(=O)NC2(C(=O)N[C@@H](CCCCN(C)C(C)=O)C(=O)N[C@@H](CC(N)=O)C(=O)N[C@@H](Cc3cccnc3)C(=O)N(C)CC(=O)N(C)C)CCOCC2)NC1=O [compound 507, cPEG3aCO-Pen(3)-N(N(Me)2)-T-W-K(NMeAc)-Pen(3)-TMAPF-2Nal-THP-K(NMeAc)-N-3Pya-Sar-CONMe2] ({Me3N+(CH2)2O(CH2)2O(CH2)2CO}-[Pen]D(NMe2)TW[Lys(Me)](Ac)[Pen]Y(X3)[2Nal][Thp][Lys(Me)](Ac)N[3Pal][Sar]-NMe2; disulfide 1-6) |
| 32 | 161 | CC(=O)N(C)CCCC[C@@H]1NC(=O)[C@H](Cc2ccc3ccccc3c2)NC(=O)[C@H]([C@@H](C)O)NC(=O)[C@H](CC(=O)N(C)C)NC(=O)[C@@H](NC(=O)CCOCCOCC[N+](C)(C)C)C(C)(C)SSC(C)(C)[C@@H](C(=O)N[C@@H](Cc2ccc(OCCCCC[N+](C)(C)C)cc2)C(=O)N[C@@H](Cc2ccc3ccccc3c2)C(=O)NC2(C(=O)N[C@@H](CCCCN(C)C(C)=O)C(=O)N[C@@H](CC(N)=O)C(=O)N[C@@H](Cc3cccnc3)C(=O)N(C)CC(=O)N(C)C)CCOCC2)NC1=O [compound 509, cPEG3aCO-Pen(3)-N(N(Me)2)-T-2Nal-K(NMeAc)-Pen(3)-TMAPF-2Nal-THP-K(NMeAc)-N-3Pya-Sar-CONMe2] ({Me3N+(CH2)2O(CH2)2O(CH2)2CO}-[Pen]D(NMe2)T[2Nal][Lys(Me)](Ac)[Pen]Y(X3)[2Nal][Thp][Lys(Me)](Ac)N[3Pal][Sar]-NMe2; disulfide 1-6) |
| > 1220 | 201 | CC(=O)N(C)CCCC[C@@H]1NC(=O)[C@H](Cc2ccccc2)NC(=O)[C@H]([C@@H](C)O)NC(=O)[C@H](CC(=O)N(C)C)NC(=O)[C@@H](NC(=O)CCOCCOCC[N+](C)(C)C)C(C)(C)SSC(C)(C)[C@@H](C(=O)N[C@@H](Cc2ccc(OCCCCC[N+](C)(C)C)cc2)C(=O)N[C@@H](Cc2ccc3ccccc3c2)C(=O)NC2(C(=O)N[C@@H](CCCCN(C)C(C)=O)C(=O)N[C@@H](CC(N)=O)C(=O)N[C@@H](Cc3cccnc3)C(=O)N(C)CC(=O)N(C)C)CCOCC2)NC1=O [compound 510, cPEG3aCO-Pen(3)-N(N(Me)2)-T-F-K(NMeAc)-Pen(3)-TMAPF-2Nal-THP-K(NMeAc)-N-3Pya-Sar-CONMe2] ({Me3N+(CH2)2O(CH2)2O(CH2)2CO}-[Pen]D(NMe2)TF[Lys(Me)](Ac)[Pen]Y(X3)[2Nal][Thp][Lys(Me)](Ac)N[3Pal][Sar]-NMe2; disulfide 1-6) |
| > 16600 | 198 | CC(=O)N(C)CCCC[C@@H]1NC(=O)[C@H](CC(C)C)NC(=O)[C@H]([C@@H](C)O)NC(=O)[C@H](CC(=O)N(C)C)NC(=O)[C@@H](NC(=O)CCOCCOCC[N+](C)(C)C)C(C)(C)SSC(C)(C)[C@@H](C(=O)N[C@@H](Cc2ccc(OCCCCC[N+](C)(C)C)cc2)C(=O)N[C@@H](Cc2ccc3ccccc3c2)C(=O)NC2(C(=O)N[C@@H](CCCCN(C)C(C)=O)C(=O)N[C@@H](CC(N)=O)C(=O)N[C@@H](Cc3cccnc3)C(=O)N(C)CC(=O)N(C)C)CCOCC2)NC1=O [compound 511, cPEG3aCO-Pen(3)-N(N(Me)2)-T-L-K(NMeAc)-Pen(3)-TMAPF-2Nal-THP-K(NMeAc)-N-3Pya-Sar-CONMe2] ({Me3N+(CH2)2O(CH2)2O(CH2)2CO}-[Pen]D(NMe2)TL[Lys(Me)](Ac)[Pen]Y(X3)[2Nal][Thp][Lys(Me)](Ac)N[3Pal][Sar]-NMe2; disulfide 1-6) |
